Results from patent publication US11319321B2, “[1,2,4]triazolo[1,5-a]pyrimidine compounds as PDE2 inhibitors” (Janssen Pharmaceutica NV, priority 2016, dated 2022).
Where two headings read alike, the source gives them in different places.

Tests used:
[1] = target: T1, Human recombinant PDE2A (hPDE2A) (Homo sapiens, UniProt O00408); test: In vitro assay PDE2A (SPA, 3H-cGMP); format: biochemical
T1 construct: made in house; host or cells: Sf9 insect cells (baculovirus)
Experimental: Human recombinant PDE2A (hPDE2A) was expressed in Sf9 cells using a recombinant rPDE10A baculovirus construct. Cells were harvested after 48 h of infection and the hPDE2A protein was purified by metal chelate chromatography on Ni-sepharose 6FF. Tested compounds were dissolved and diluted in 100% DMSO to a concentration 100 fold of the final concentration in the assay. Compound dilutions (0.4 μl) were added in 384 well plates to 20 μl of incubation buffer (50 mM Tris pH 7.8, 8.3 mM MgCl2, 1.7 mM EGTA). 10 μl of hPDE2A enzyme in incubation buffer was added and the reaction was started by addition of 10 μl substrate to a final concentration of 10 μM cGMP and 0.01 μCi ^3H-cGMP. The reaction was incubated for 45 minutes at room temperature. […] After sedimentation of the beads during 30 minutes the radioactivity was measured in a Perkin Elmer Topcount scintillation counter and results were expressed as cpm. For blanc values the enzyme was omitted from the reaction and replaced by incubation buffer. Control values were obtained by addition of a final concentration of 1% DMSO instead of compound.

hPDE3B = test: In vitro assay PDE3 (SPA, 3H-cAMP); format: biochemical, human; settings: 0.4 μM cAMP substrate; for hPDE3B Emax: in % (unit assumed)
hPDE10A2 = hPDE10A2 (Homo sapiens, UniProt Q9Y233); test: biochemical; settings: 60 nM cAMP substrate; for IC50: human clone, read-out: hPDE10A2 or rPDE10A2 pIC50 (converted); for Emax: read-out: hPDE10A2 or rPDE10A2 Emax, human clone
Experimental: Rat recombinant PDE10A (rPDE10A2) was expressed in Sf9 cells using a recombinant rPDE10A baculovirus construct. Cells were harvested after 48 h of infection and the rPDE10A protein was purified by metal chelate chromatography on Ni-sepharose 6FF. Tested compounds were dissolved and diluted in 100% DMSO to a concentration 100 fold of the final concentration in the assay. Human recombinant PDE10A ([…]) was expressed in Sf9 cells using a recombinant hPDE10A baculovirus that was made and amplified in house. Cells were harvested after 72 h of infection and the hPDE10A protein was purified by metal chelate chromatography on Ni-sepharose. Compound dilutions (0.4 μl) were added in 384 well plates to 20 μl of incubation buffer (50 mM Tris pH 7.8, 8.3 mM MgCl2, 1.7 mM EGTA). 10 μl of rPDE10A or hPDE10A enzyme in incubation buffer was added and the reaction was started by addition of 10 μl substrate to a final concentration of 60 nM cAMP and […] ^3H-cAMP. The reaction was incubated for 60 minutes at room temperature. After incubation, the reaction was stopped with 20 μl of stop solution consisting of 17.8 mg/ml PDE SPA (scintillation proximity assay) beads. After sedimentation of the beads during 30 minutes the radioactivity was measured in a Perkin Elmer Topcount scintillation counter and results were expressed as cpm. For blanc values the enzyme was omitted from the reaction and replaced by incubation buffer. Control values were obtained by addition of a final concentration of 1% DMSO instead of compound. A best fit curve is fitted by a minimum sum of squares method to the plot of % of control value substracted with blanc value versus compound concentration and the half maximal inhibitory concentration (IC50) value is derived from this curve.

[2] = hPDE2A pIC50, 10 μM cGMP substrate
[3] = 10 μM cGMP substrate, read-out: hPDE2A pIC50 (converted)

Chain of hPDE10A2 (Q9Y233 267-1055): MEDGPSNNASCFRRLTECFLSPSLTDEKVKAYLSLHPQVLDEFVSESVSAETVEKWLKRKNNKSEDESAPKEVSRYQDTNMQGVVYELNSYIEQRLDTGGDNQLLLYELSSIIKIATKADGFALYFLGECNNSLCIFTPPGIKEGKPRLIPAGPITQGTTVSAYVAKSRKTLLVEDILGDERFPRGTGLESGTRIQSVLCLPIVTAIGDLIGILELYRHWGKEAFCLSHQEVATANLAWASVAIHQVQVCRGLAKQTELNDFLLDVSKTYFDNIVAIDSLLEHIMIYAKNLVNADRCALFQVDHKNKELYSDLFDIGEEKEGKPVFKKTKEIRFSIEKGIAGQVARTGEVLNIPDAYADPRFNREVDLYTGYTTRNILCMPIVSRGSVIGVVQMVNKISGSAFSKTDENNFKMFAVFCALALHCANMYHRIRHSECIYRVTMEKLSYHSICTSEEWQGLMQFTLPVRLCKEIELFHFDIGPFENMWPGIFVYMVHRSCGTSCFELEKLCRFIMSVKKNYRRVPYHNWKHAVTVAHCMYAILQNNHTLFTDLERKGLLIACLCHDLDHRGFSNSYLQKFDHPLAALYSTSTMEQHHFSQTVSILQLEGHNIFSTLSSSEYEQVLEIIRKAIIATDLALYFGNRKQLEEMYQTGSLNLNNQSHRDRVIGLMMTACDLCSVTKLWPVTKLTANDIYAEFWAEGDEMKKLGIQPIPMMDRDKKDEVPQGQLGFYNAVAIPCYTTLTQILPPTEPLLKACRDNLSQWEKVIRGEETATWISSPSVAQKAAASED
T1 sequence (O00408 whole entry): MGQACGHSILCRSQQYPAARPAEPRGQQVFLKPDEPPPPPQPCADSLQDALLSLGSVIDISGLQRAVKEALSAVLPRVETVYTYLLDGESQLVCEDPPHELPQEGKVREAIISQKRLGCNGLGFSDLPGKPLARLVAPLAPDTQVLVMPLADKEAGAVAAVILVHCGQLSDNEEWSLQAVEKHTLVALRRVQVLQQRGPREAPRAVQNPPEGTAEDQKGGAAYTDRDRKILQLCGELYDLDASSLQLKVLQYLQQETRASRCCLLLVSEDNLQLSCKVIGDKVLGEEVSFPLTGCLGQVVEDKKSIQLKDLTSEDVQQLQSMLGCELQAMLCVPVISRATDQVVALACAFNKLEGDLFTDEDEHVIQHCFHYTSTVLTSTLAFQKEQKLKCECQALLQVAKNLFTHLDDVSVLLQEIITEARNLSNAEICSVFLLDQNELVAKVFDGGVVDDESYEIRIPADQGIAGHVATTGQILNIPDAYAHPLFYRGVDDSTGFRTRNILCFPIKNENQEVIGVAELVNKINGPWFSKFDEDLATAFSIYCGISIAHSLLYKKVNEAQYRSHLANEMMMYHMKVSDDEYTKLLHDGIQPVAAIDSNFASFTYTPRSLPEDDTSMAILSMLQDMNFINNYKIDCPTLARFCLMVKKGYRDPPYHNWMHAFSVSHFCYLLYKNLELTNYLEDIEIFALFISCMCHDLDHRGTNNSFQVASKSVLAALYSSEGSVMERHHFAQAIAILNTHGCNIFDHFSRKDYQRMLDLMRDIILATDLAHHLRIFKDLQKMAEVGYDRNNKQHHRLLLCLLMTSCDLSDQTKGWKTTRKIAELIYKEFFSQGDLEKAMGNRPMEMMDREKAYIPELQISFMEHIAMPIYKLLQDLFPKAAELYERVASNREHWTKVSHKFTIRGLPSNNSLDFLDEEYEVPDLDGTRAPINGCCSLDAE

SMILES | Emax ([1]; 10 μM cGMP substrate) [%] | IC50 [1, 2] [nM] | hPDE3B pIC50 (hPDE3B) | hPDE3B Emax (hPDE3B) | IC50 (hPDE10A2) [nM] | Emax (hPDE10A2) [%] | IC50 [1, 3] [nM] | IC50 [1] [nM]
Cc1cc(C(C)N2CC[C@@H](C)[C@H](c3cc(C(F)F)nc4ncnn34)C2)cc(C)n1 (mixture of isomers) [Compound 1] | 100 | 20.9 | <5 | 45 | 2950 | 74 |  | 
Cc1cc([C@H](C)N2CC[C@@H](C)[C@H](c3cc(C(F)F)nc4ncnn34)C2)cc(C2CC2)n1 (relative stereo) [Compound 2] | 99 |  | <5 | 29 | 2950 | 78 | 87.1 | 
C[C@@H]1CCN([C@@H](C)c2ccc(C(F)(F)F)cc2)C[C@H]1c1cc(C(F)F)nc2ncnn12 (relative stereo) [Compound 6] | 99 |  | <5 | 37 | 6310 | 68 |  | 178
C[C@@H]1CCN([C@H](C)c2ccc(C(F)(F)F)cc2)C[C@H]1c1cc(C(F)F)nc2ncnn12 (relative stereo) [Compound 7] | 98 |  | 5.08 | 57 | 7760 | 47 |  | 102
Cc1cc([C@H](C)N2CC[C@@H](C)[C@H](c3cc(C(F)F)nc4ncnn34)C2)cc(Cl)n1 (single isomer, unassigned) [Compound 4] | 99 |  | <5 | 45 | 1100 | 88 | 7.76 | 
Cc1cc([C@@H](C)N2CC[C@@H](C)[C@H](c3cc(C(F)F)nc4ncnn34)C2)cc(Cl)n1 (single isomer, unassigned) [Compound 5] | 100 |  | 5.13 | 55 | 1510 | 87 | 77.6 | 
C[C@@H]1CCN([C@H](C)c2ccc3ncsc3c2)C[C@H]1c1cc(C(F)F)nc2ncnn12 (single isomer, unassigned) [Compound 12] | 99 |  | ~5.07 | 54 | 2040 | 86 |  | 44.7
C[C@@H]1CCN([C@@H](C)c2ccc3ncsc3c2)C[C@H]1c1cc(C(F)F)nc2ncnn12 (single isomer, unassigned) [Compound 13] | 98 |  | ~5.02 | 47 | 1480 | 85 |  | 58.9
Cc1cc(CN2CC[C@@H](C)[C@@](F)(c3cc(C(F)F)nc4ncnn34)C2)cc(C)n1 (single isomer, unassigned) [Compound 49] | 86 | 2140 | <5 | 17 | > 10000 | 12 |  | 
COc1ccc(CN2CCC[C@](C)(c3cc(C(F)F)nc4ncnn34)C2)c(OC)c1.Cl (stereo in doubt) [Compound 53] | 14 | 6920 | <5 | 3 | > 10000 | 0 |  | 
C[C@]1(c2cc(C(F)F)nc3ncnn23)CCCN(Cc2ccc(F)c(F)c2)C1.Cl (stereo in doubt) [Compound 54] | 15 |  | <5 | 5 | > 10000 | 9 | ~8910 | 
Cc1cc(CN2CC[C@@H](C)[C@H](c3cc(C(F)F)nc4ncnn34)C2)cc(C2CC2)n1 [Compound 9] | 100 |  | <5 | 34 | 1580 | 83 | 5.25 | 
Cc1cc(CN2CC[C@@H](C)[C@H](c3cc(C(F)F)nc4ncnn34)C2)cc(Cl)n1.Cl [Compound 10] | 96 |  | <5 | 19 | 1580 | 82 |  | 24.5
Cc1cc(CN2CC[C@H](C)[C@@H](c3cc(C(F)F)nc4ncnn34)C2)cc(Cl)n1.Cl [Compound 11] | 19 |  | ~5.4 | 71 | ~10200 | 47 |  | 3890
C[C@@H]1CCN(Cc2ccc(Cl)c(Cl)c2)C[C@H]1c1cc(C(F)F)nc2ncnn12 [Compound 14] | 102 |  | <5 | 39 | 2290 | 80 |  | 56.2
Cc1cc(CN2CC[C@@H](C)[C@H](c3cc(C(F)F)nc4ncnn34)C2)ccn1.Cl [Compound 15] | 95 |  | <4.52 | 17 | ~10000 | 45 |  | 95.5
Cc1cc(CN2CC[C@H](C)[C@@H](c3cc(C(F)F)nc4ncnn34)C2)ccn1.Cl [Compound 16] | 4 |  | <5 | 23 | > 10000 | 10 |  | 5890
CC(C)c1ccc(CN2CC[C@@H](C)[C@H](c3cc(C(F)F)nc4ncnn34)C2)cc1 [Compound 18] | 98 |  | 5.1 | 60 | 7760 | 56 |  | 282
C[C@@H]1CCN(Cc2nccc3ccccc23)C[C@H]1c1cc(C(F)F)nc2ncnn12 [Compound 19] | 96 |  | <5 | 35 | 8510 | 58 |  | 324
C[C@@H]1CCN(Cc2cccc(OC(F)(F)F)c2)C[C@H]1c1cc(C(F)F)nc2ncnn12 [Compound 24] | 96 |  |  |  | 7240 | 58 |  | 692
C[C@@H]1CCN(Cc2ccc(C(F)(F)F)cc2)C[C@H]1c1cc(C(F)F)nc2ncnn12 [Compound 39] | 99 |  |  |  | 6170 | 65 | 170 | 
